{"source": "ChEMBL document CHEMBL5465560", "about": "“Selectivity Literature for EUbOPEN Chemogenomic Library” (2024)", "key": {"[1]": {"target": "Homeodomain-interacting protein kinase 1 (Homo sapiens, UniProt Q86Z02)", "experiment": "Selectivity interaction (KinomeScan (DiscoverX)) EUB0000229b HIPK1", "settings": "at 10 µM"}, "[2]": {"target": "Tyrosine-protein kinase JAK1 (Homo sapiens, UniProt P23458)", "sequence (P23458 whole entry)": "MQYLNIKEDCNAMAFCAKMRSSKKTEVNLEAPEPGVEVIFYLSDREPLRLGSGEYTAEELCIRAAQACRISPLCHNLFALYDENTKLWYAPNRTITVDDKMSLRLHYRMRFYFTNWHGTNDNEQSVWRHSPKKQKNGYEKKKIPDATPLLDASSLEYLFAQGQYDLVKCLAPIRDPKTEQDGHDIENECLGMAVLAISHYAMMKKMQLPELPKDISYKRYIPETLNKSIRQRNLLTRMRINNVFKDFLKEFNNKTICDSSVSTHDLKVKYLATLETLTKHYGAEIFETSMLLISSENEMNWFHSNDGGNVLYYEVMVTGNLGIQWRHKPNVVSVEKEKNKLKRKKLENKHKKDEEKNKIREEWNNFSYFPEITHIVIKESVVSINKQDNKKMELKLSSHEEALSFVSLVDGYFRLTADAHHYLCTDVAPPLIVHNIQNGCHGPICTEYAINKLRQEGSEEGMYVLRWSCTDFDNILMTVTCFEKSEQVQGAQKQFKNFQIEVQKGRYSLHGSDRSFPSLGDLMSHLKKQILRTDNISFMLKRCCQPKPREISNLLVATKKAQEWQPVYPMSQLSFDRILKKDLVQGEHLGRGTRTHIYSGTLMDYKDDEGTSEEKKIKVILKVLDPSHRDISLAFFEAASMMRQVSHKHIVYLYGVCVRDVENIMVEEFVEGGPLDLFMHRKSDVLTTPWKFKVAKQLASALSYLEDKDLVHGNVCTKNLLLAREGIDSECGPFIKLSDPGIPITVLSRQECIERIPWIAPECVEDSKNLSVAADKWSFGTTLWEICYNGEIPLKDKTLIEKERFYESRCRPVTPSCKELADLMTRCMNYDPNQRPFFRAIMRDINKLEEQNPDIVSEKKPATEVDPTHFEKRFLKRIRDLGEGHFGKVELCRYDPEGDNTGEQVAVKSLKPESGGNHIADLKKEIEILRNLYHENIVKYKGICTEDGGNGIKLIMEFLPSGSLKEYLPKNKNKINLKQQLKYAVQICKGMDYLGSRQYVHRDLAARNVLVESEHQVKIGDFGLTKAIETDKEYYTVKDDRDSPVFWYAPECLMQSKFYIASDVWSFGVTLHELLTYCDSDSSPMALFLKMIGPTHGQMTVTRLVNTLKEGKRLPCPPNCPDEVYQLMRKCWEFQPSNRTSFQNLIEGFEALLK", "experiment": "Selectivity interaction (KinomeScan (DiscoverX)) EUB0000229b JAK1", "settings": "at 10 µM"}, "[3]": {"target": "T1, Peripheral plasma membrane protein CASK (Homo sapiens) (UniProt O14936)", "T1 sequence (whole entry)": "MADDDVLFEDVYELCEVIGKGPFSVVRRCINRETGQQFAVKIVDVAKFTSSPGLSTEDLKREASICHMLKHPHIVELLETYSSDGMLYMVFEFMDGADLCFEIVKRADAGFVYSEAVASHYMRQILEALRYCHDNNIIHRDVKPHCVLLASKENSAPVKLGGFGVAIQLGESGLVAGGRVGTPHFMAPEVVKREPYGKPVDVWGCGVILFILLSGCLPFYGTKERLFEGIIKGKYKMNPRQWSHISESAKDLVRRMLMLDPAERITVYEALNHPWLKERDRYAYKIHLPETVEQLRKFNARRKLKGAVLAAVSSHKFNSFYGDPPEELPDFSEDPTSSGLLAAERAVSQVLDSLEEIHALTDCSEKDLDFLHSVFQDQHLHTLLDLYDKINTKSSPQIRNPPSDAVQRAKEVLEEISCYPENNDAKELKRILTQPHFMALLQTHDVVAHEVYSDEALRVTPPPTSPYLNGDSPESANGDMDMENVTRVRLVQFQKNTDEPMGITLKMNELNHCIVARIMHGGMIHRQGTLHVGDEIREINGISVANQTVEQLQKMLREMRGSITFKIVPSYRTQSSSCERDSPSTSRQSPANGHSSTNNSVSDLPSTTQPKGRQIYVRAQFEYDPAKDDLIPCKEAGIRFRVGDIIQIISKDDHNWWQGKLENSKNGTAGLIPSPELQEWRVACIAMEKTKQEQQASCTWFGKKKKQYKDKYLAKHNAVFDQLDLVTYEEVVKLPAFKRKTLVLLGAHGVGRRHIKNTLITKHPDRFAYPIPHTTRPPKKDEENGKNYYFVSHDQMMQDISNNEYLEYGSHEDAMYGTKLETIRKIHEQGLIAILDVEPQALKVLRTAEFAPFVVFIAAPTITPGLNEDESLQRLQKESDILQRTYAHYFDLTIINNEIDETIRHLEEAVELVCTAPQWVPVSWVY", "experiment": "Selectivity interaction (KinomeScan (DiscoverX)) EUB0000045b CASK"}, "[4]": {"target": "Serine/threonine-protein kinase Nek4 (Homo sapiens) (UniProt P51957)", "experiment": "Selectivity interaction (KinomeScan (DiscoverX)) EUB0001049a NEK4", "settings": "at 1 µM"}, "[5]": {"target": "Serine/threonine-protein kinase Nek7 (Homo sapiens) (UniProt Q8TDX7)", "sequence (Q8TDX7 whole entry, looked up)": "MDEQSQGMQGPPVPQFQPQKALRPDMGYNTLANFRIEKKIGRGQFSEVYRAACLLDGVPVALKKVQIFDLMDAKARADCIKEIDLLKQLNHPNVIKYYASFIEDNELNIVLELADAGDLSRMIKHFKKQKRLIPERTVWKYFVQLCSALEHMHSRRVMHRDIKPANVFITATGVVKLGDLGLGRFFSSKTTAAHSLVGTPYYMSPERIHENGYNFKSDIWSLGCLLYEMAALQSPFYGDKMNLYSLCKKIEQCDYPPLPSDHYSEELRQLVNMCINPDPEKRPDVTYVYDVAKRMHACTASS", "experiment": "Selectivity interaction (KinomeScan (DiscoverX)) EUB0001049a NEK7", "settings": "at 1 µM"}, "[6]": {"target": "Mitogen-activated protein kinase kinase kinase 20 (Homo sapiens) (UniProt Q9NYL2)", "experiment": "Selectivity interaction (KinomeScan (DiscoverX)) EUB0001049a MAP3K20", "settings": "at 1 µM"}, "[7]": {"target": "Glycogen synthase kinase-3 beta (Homo sapiens, UniProt P49841)", "sequence (P49841 whole entry, looked up)": "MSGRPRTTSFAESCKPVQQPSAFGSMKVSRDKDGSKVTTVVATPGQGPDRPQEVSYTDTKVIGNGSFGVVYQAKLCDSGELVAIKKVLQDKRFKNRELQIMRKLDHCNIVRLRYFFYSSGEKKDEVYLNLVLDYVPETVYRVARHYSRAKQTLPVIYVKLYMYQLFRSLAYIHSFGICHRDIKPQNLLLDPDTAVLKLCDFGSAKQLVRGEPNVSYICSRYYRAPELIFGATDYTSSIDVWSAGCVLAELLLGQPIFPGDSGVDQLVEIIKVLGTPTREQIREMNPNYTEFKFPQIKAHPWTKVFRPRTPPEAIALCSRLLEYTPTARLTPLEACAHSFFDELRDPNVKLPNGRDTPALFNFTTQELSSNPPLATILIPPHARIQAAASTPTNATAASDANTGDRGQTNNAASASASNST", "experiment": "Selectivity interaction (ProQinase) EUB0000171b GSK3B"}, "[8]": {"target": "Angiopoietin-1 receptor (Homo sapiens) (UniProt Q02763)", "experiment": "Selectivity interaction (ProQinase) EUB0000171b TEK", "settings": "at 5 µM"}, "[9]": {"target": "Phosphatidylinositol 4,5-bisphosphate 3-kinase catalytic subunit beta isoform (Homo sapiens) (UniProt P42338)", "sequence (P42338 whole entry, looked up, canonical isoform)": "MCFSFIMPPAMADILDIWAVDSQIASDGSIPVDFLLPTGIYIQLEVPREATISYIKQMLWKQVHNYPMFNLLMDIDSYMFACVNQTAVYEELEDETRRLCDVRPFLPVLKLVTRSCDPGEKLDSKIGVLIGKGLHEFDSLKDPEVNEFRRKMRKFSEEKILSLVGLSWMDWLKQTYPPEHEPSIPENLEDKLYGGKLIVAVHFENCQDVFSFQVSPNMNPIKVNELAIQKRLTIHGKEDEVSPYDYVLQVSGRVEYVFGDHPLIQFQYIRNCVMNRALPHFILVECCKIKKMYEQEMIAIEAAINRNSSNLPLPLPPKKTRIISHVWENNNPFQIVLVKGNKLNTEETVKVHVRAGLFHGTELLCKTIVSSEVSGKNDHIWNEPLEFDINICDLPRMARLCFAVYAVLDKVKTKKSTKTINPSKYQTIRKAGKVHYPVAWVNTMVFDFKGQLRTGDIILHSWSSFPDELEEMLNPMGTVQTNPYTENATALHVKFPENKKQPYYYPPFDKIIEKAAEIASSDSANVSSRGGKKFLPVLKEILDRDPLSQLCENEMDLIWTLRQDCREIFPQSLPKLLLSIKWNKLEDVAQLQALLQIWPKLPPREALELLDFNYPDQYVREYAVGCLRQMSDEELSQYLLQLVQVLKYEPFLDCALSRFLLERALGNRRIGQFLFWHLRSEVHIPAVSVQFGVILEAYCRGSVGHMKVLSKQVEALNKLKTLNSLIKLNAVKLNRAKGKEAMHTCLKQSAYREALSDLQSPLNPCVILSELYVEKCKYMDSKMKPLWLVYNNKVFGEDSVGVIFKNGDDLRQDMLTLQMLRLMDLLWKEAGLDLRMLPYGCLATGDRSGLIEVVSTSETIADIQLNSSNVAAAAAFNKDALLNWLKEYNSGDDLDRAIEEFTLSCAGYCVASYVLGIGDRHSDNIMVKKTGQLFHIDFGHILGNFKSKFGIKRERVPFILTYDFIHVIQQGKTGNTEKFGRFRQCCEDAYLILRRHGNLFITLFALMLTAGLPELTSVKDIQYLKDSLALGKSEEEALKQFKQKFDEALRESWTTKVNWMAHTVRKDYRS", "experiment": "Selectivity interaction (KinomeScan (DiscoverX)) EUB0001619a PIK3CB", "settings": "at 1 µM"}, "[10]": {"target": "T2, Protein kinase C epsilon type (Homo sapiens) (UniProt Q02156)", "T2 sequence (whole entry)": "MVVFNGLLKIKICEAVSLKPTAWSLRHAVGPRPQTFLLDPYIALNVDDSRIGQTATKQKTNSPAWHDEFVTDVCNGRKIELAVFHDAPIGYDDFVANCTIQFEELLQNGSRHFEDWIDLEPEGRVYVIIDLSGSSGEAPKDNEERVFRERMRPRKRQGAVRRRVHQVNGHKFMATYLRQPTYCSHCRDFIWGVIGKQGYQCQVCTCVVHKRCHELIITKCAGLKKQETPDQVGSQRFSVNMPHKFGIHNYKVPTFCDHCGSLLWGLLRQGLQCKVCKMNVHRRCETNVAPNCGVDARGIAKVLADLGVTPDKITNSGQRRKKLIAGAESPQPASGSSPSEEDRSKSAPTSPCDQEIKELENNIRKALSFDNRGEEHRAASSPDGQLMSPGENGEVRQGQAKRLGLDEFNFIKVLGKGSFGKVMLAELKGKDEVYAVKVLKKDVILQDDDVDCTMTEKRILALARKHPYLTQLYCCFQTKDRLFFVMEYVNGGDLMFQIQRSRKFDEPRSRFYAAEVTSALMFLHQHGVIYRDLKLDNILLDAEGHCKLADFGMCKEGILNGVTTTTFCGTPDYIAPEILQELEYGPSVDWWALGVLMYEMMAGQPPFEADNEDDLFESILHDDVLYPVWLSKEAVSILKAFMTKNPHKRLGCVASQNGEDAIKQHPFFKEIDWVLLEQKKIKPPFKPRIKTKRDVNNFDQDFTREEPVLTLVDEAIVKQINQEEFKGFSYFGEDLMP", "experiment": "Selectivity interaction (KinomeScan (DiscoverX)) EUB0000607a PRKCE", "settings": "at 10 µM"}, "[11]": {"target": "Cyclin-dependent kinase-like 1 (Homo sapiens) (UniProt Q00532)", "sequence (Q00532 whole entry)": "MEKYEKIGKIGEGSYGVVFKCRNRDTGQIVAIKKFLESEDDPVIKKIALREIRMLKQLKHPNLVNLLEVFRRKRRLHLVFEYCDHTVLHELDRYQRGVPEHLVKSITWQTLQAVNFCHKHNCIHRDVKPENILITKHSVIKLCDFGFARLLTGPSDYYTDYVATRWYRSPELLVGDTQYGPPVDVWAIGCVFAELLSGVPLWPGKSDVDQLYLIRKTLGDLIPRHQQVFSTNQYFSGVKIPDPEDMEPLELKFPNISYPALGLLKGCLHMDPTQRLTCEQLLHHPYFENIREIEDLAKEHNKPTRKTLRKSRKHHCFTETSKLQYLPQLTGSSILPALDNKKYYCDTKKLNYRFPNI", "experiment": "Selectivity interaction (KinomeScan (DiscoverX)) EUB0000607a CDKL1", "settings": "at 10 µM"}, "[12]": {"target": "Serine/threonine-protein kinase PLK1 (Homo sapiens, UniProt P53350)", "sequence (P53350 whole entry)": "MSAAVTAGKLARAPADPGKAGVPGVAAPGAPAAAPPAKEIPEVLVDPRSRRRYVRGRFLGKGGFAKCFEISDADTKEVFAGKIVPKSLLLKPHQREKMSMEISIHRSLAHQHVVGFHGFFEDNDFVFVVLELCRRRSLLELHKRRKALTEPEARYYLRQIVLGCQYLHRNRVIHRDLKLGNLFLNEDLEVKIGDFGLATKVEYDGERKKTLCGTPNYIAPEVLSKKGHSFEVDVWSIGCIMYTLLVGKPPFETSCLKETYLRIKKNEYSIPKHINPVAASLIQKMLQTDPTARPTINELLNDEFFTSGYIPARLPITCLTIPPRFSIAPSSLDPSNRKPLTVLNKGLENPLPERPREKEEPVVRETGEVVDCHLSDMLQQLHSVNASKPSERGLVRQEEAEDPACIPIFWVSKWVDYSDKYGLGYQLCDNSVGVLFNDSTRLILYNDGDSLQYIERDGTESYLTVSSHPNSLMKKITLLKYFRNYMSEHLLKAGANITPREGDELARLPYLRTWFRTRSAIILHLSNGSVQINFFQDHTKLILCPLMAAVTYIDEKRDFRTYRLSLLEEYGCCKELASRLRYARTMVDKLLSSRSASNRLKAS", "experiment": "Selectivity interaction (KinomeScan (DiscoverX)) EUB0000618a PLK1", "settings": "at 10 µM"}, "[13]": {"target": "Serine/threonine-protein kinase N2 (Homo sapiens, UniProt Q16513)", "sequence (Q16513 whole entry, looked up)": "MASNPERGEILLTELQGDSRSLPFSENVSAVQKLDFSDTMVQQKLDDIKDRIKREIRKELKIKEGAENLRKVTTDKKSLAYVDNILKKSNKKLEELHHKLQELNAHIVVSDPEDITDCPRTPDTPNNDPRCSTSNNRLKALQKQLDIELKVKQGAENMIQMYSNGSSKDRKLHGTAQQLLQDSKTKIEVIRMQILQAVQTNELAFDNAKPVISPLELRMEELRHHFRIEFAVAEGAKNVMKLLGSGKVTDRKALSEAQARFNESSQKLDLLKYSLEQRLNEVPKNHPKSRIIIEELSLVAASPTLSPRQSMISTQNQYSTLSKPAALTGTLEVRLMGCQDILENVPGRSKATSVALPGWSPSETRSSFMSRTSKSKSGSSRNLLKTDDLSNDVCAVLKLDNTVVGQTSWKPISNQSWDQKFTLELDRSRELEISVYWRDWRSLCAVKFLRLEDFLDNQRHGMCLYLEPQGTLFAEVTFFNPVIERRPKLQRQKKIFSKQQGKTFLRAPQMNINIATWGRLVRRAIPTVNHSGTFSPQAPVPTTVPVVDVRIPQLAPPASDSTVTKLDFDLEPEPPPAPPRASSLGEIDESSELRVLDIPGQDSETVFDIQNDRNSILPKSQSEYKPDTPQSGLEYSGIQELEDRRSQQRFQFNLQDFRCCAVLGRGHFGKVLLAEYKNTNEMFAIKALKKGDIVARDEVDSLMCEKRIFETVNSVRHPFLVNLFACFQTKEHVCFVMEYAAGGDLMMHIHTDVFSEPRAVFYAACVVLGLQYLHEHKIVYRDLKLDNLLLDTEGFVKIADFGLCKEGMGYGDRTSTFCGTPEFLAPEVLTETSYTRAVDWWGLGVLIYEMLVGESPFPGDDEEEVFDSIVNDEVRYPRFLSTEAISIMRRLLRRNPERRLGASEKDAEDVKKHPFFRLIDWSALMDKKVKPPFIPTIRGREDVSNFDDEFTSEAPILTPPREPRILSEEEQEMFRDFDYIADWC", "experiment": "Selectivity interaction (ActivX KiNativ screen (kinase selectivity in THP-1 cell lysates)) EUB0000639a PKN2", "format": "subcellular", "settings": "lysate"}}}
{"smiles": "COc1cc(N(C)c2ccnc3ccc(C(F)(F)F)cc23)cc(OC)c1OC", "values": [{"measurement": "% binding", "setting": "[1]", "value": 77, "unit": "%"}, {"measurement": "% binding", "setting": "[2]", "value": 82, "unit": "%"}]}
{"smiles": "C=CC(=O)Nc1cc(-n2c(=O)ccc3cnc4ccc(-c5ccc(NS(C)(=O)=O)cc5)cc4c32)ccc1C", "values": [{"measurement": "% of control", "setting": "[3]; at 1 µM", "value": 61, "unit": "%"}, {"measurement": "% of control", "setting": "[3]; at 10 µM", "value": 100, "unit": "%"}]}
{"smiles": "COc1cc(Nc2nc(C)cc(-c3cnn4nc(OC)ccc34)n2)cc(C(F)(F)F)c1", "values": [{"measurement": "% of control", "setting": "[4]", "value": 90, "unit": "%"}, {"measurement": "% of control", "setting": "[5]", "value": 83, "unit": "%"}, {"measurement": "% of control", "setting": "[6]", "value": 77, "unit": "%"}]}
{"smiles": "C=CC(=O)Nc1cccc(C(=O)Nc2ccc(Nc3cc(-c4[nH]c(SC)nc4C)ccn3)cc2)c1", "values": [{"measurement": "% of control", "setting": "[7]; at 1 µM", "value": 91, "unit": "%"}, {"measurement": "% of control", "setting": "[7]; at 5 µM", "value": 85, "unit": "%"}, {"measurement": "% of control", "setting": "[8]", "value": 96, "unit": "%"}]}
{"smiles": "N#Cc1cccc(-c2c[nH]c3ncnc(N4CCOCC4)c23)c1", "values": [{"measurement": "% of control", "setting": "[9]", "value": 100, "unit": "%"}]}
{"smiles": "CNC(=O)Nc1ccc(-c2nc(N3CC4CCC(C3)O4)c3cnn(C4CCC5(CC4)OCCO5)c3n2)cc1", "values": [{"measurement": "% of control", "setting": "[10]", "value": 100, "unit": "%"}, {"measurement": "% of control", "setting": "[11]", "value": 84, "unit": "%"}]}
{"smiles": "O[C@H]1CC[C@H](Nc2ncc3nc(Nc4c(F)cc(F)cc4F)n([C@H]4CCOC4)c3n2)CC1", "values": [{"measurement": "% of control", "setting": "[12]", "value": 100, "unit": "%"}]}
{"smiles": "CC[C@@H]1[C@H](F)C(=O)N[C@@H]1COc1nccc2cc(C(N)=O)c(OC)cc12", "note": "[ZIMLOVISERTIB]", "values": [{"measurement": "% of inhibition", "setting": "[13]; at 0.01 µM", "value": -6.1, "unit": "%"}, {"measurement": "% of inhibition", "setting": "[13]; at 0.04 µM", "value": -5.7, "unit": "%"}, {"measurement": "% of inhibition", "setting": "[13]; at 0.2 µM", "value": 2.9, "unit": "%"}, {"measurement": "% of inhibition", "setting": "[13]; at 1 µM", "value": 18.9, "unit": "%"}, {"measurement": "% of inhibition", "setting": "[13]; at 5 µM", "value": -9.1, "unit": "%"}]}
